Where a name gives a salt, the structure may show the parent alone. Read-outs that look alike come from different tables or passages of the source.
Experiments:
dopaminergic receptors = target: T1, dopaminergic receptors (Rattus norvegicus, UniProt P61169); assay: Affinity for the dopaminergic receptors (displacement of 3H spiroperidol, striated bodies); type: binding, rats
T1 construct: The striated bodies removed from the brains of 6 male rats; from tissue; host or cells: rat striatum (striated bodies), membrane preparation
Protocol: (4) Affinity for the dopaminergic receptors
The striated bodies removed from the brains of 6 male rats weighing an average of 150 g were homogenized to the twentieth (weight/volume) in 0.32M sucrose. After centrifuging the homogenized mixture at 1,000 g for 10 minutes at 0° C. the supernatant was centrifuged at 30,000 g for 15 minutes at +4° C. The residue was taken up in 25 ml of Tris HCl 50 mM buffer, pH 7.7, and centrifuged at 30,000 g for 15 minutes at +4° C. The new residue was taken up in 50 ml of Krebs Tris HCl buffer pH 7.3, and the suspension was pre-incubated fo 10 minutes at 37° C. It was then incubated for 20 minutes on a water-bath at +37° C. in the presence of 3H spinoperidol alone, with an excess of haloperidol and with increasing concentrations of the product under test. The incubated suspensions were filtered on Whatman GF/C and the filters were washed three times with 5 ml of Tris HCl 50 mM buffer. The radio-activity of the filters was measured by liquid scintillation.
The non-specific fixation were determined in parallel by incubation of 3H spiroperidol in the presence of an excess of haloperidol and the following results were obtained. The result was expressed directly in 50% inhibiting concentrations, (IC50 : concentration of product studied, expressed in nM, necessary to displace 50% of the specific radio-activity fixed on the receptor studied).

mice = assay: Study of the acute toxicity (LDO, oral route); type: in vivo
Protocol: (3) Study of the acute toxicity
The lethal doses LDO of the different compounds tested were evaluated after administration by oral route in mice. The maximum dose not causing any mortality in 8 days was called LDO and the following results were obtained: […]

arterial pressure = assay: Study of the hypotensive activity on anesthetized "normotendu" rat; type: in vivo, Male Sprague-Dawley rats (CR); conditions: jugular vein injection
Protocol: (5) Study of the hypotensive activity on anesthetized "normotendu" rat.
Male Sprague-Dawley rats (CR) were anesthetized intraperitoneally with sodium pentobarbital (60 mg/Kg). A jugular vein was catheterized for injection of the product and a carotid artery was catheterized for registration of the arterial pressure. The product to be tested was dissolved in 10% of ethanol and then injected at a volume of 1 ml/kg. […] The following table indicates the variations of the arterial pressure after administration of the product tested expressed as a percentage of the initial control arterial pressure.

[1] = tested on: average arterial pressure; assay: Test of revealing a direct vasodilatation activity (demedulated rats under angiotensine II perfusion); type: in vivo, Rats of Sprague-Dawley strain; conditions: Rattus norvegicus, intravenous cumulative doses, tested between 0.001 and 1 mg/kg, read-out: dose from which vasodilatation effect starts
Protocol: Rats of Sprague-Dawley strain with a weight of 320-350 g were anesthetized with pentobarbital (50 mg/kg by interperitoneal injection). After insertion of a carotid catheter to measure the arterial pressure and a jugular catheter for the injection of the compounds to be stidied as well as the eventual antagonists, the animals were demedulated by a steel rod which was introduced by the right orbital hole and passed down the whole length of the spinal marrow. The animals were then placed immediately under assisted respiration and some minutes after stabilization of arterial pressure, the animals received an intravenous perfusion of angiotensine II of 0.50 micrograms/kg per minute to increase their average pressure by about 100 mm of mercury. After obtaining a plateau, the test compound was injected intravenously every 2 minutes and in cumulative doses. The percentages of fall of the average arterial pressure so obtained enabled a curve of dose-response to be drawn reflecting the vasodilatation activity of the molecule studied. Previous treatment of the animals by different antagonists enabled the mechanism of action of this molecule to be distinguished. The products were tested between 0.001 and 1 mg/kg and domperidone and propanolol were used as antagonists.

[2] = tested on: nigrostriated dopaminergic bundle; assay: Rotational behaviour after unilateral lesion of the nigrostriated bundle by 6-hydroxydopamine; type: in vivo, rats
Protocol: (1) Rotational behaviour after unilateral lesion of the nigrostriated bundle by 6-hydroxydopamine.
Male rats of about 220 g weight were injured in the nigrostriated dopaminergic bundle by a modified Ungerstedt's method [Acta. physiol. Scand. 1971, 82 suppl. 367-69 93] by unilateral injection of […] of 6-hydroxydopamine hydrochloride in solution in 4 microliters of physiological solution containing 0.4 mg/ml of ascorbic acid. The products studied were administered intraperitoneally and the treated animals were placed individually in a rotameter which enabled the counting of the number of rotations made by each animal in the direction opposite to that of the injured side.

T1 sequence (P61169 whole entry): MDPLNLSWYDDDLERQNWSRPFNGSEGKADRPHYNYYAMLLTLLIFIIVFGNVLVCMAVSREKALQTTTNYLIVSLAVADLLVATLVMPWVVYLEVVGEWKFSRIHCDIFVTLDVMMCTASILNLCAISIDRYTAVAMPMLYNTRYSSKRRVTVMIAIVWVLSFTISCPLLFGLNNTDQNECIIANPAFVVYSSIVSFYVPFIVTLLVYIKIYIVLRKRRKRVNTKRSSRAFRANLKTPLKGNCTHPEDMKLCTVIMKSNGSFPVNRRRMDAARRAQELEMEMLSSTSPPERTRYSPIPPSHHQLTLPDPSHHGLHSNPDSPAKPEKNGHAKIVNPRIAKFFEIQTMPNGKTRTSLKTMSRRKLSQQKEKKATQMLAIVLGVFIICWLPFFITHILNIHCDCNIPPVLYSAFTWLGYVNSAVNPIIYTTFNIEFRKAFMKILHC

O=c1[nH]c2cccc(C3CCCNC3)c2[nH]1 (stereo not shown) [Example 1, 1,3-dihydro-4-(3-piperidinyl)-2H-benzimidazol-2-one]
IC50 (dopaminergic receptors; rat striated bodies, 3H spiroperidol, 20 minutes at 37° C., pH 7.3, read-out: IC50 (displacement of 50% of the specific radio-activity fixed on the receptor)): 172 nM
LDO (maximum dose not causing any mortality in 8 days) (mice): greater than 400 mg/kg

Br.O=c1[nH]c2c(O)ccc(C3CCCNC3)c2[nH]1 (stereo not shown) [Example 4, 1,3-dihydro-4-hydroxy-7-(3-piperidinyl)-2H-benzimidazol-2-one hydrobromide]
IC50 (dopaminergic receptors): 300 nM
LDO (maximum dose not causing any mortality in 8 days) (mice): greater than 400 mg/kg
variation of the arterial pressure 30 min. after administration (arterial pressure; dose 0.1 mg/kg): -17 percentage of the initial cont
minimal effective dose [1]: 0.03 mg/kg

Br.CCCN1CCCC(c2ccc(O)c3[nH]c(=O)[nH]c23)C1 (stereo not shown) [Example 5, 1,3-dihydro-4-hydroxy-7-(1-propyl-3-piperidinyl)-2H-benzimidazol-2-one hydrobromide]
variation of the arterial pressure 5 min. after administration (arterial pressure; dose 1 mg/kg): -19 percentage of the initial cont
variation of the arterial pressure 30 min. after administration (arterial pressure; dose 1 mg/kg): -19 percentage of the initial cont
variation of the arterial pressure 5 min. after administration (arterial pressure; dose 10 mg/kg): -23 percentage of the initial cont
variation of the arterial pressure 30 min. after administration (arterial pressure; dose 10 mg/kg): -21 percentage of the initial cont

CN1CCCC(c2ccc(O)c3[nH]c(=O)[nH]c23)C1 (stereo not shown) [Example 6, 1,3-dihydro-4-hydroxy-7-(1-methyl-3-piperidinyl)-2H-benzimidazol-3-one hydrobromide]
minimal effective dose ([2]; Rattus norvegicus, ip, read-out: dose from which rotational behavior is induced): 10 mg/kg
rotational behavior (activity) ([2]; rats, intraperitoneal, dose of 5 mg/kg): inactive
central dopaminergic agonist activity ([2]; rats, intraperitoneal, conclusion from rotation model of very great sensitivity): weak

Source: US4831043A, “Dopaminergic benzimidazol-2-ones” (Roussel Uclaf, priority 1987, dated 1989)
